Measurements reported in patent publication US5925645A, “2-aryl-substituted pyridines” (Bayer Aktiengesellschaft, priority 1996, dated 1999).

Legend:
[1] = target: T1, cholesterol ester transfer protein (CETP) (Homo sapiens, UniProt P11597); test: CETP inhibition testing: transfer of 3H-cholesterol ester from human HD lipoproteins to biotinylated LD lipoproteins (SPA); assay type: biochemical; conditions: 3H-CE transfer HDL to biotin-LDL, 37° C., 18 h
T1 construct: CETP is obtained in partially purified form from human plasma by differential centrifugation and column chromatography; from tissue; host or cells: human plasma
T1 sequence (P11597 18-493): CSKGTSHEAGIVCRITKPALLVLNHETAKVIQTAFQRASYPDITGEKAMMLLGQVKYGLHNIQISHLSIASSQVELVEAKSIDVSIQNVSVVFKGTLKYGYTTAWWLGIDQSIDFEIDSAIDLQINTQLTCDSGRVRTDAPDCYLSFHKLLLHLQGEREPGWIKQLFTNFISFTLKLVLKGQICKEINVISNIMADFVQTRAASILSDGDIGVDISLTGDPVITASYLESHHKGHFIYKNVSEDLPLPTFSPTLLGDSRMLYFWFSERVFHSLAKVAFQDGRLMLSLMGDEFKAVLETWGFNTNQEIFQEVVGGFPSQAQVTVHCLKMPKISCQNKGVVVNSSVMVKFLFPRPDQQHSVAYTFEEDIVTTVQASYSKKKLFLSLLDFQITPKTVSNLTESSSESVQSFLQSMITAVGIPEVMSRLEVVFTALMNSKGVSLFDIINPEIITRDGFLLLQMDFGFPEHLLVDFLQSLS
Procedure: CETP is obtained in partially purified form from human plasma by differential centrifugation and column chromatography and used for the test. To this end, human plasma is adjusted to a density of 1.21 g per ml using NaBr and centrifuged at 4° C. for 18 h at 50,000 rpm. The bottom fraction (d>1.21 g/ml) is applied to a Sephadex®phenyl-sepharose 4B (Pharmacia) column, washed with 0.15M NaCl/0.001M trisHCl pH 7.4 and then eluted with dist. water. The CETP-active fractions are pooled, dialysed against 50 mM Na acetate pH 4.5 and applied to a CM-Sepharose® (Pharmacia) column. The column is then eluted using a linear gradient (0-1M NaCl). The pooled CETP fractions are dialysed against 10 mM trisHCl pH 7.4 and then further purified by chromatography on a Mono Q® column (Pharmacia).
50 ml of fresh human EDTA plasma is adjusted to a density of 1.12 using NaBr and centrifuged for 18 h at 50,000 rpm at 4° C. in a Ty 65 rotor. The upper phase is used to obtain cold LDL. The lower phase is dialysed against 3×4 l of PDB buffer (10 mM tris/HCl pH 7.4, […], 1 mM EDTA, 0.02% NaN3). 20 μl of ^3 H-cholesterol (Dupont NET-725; 1 μC/μl dissolved in ethanol) are then added per 10 ml of retentate volume and incubation is carried out at 37° C. under N2 for 72 h.
The mixture is then adjusted to the density 1.21 using NaBr and centrifuged at 20° C. at 50,000 rpm in the Ty 65 rotor for 18 h. The upper phase is recovered and the lipoprotein fractions are purified by gradient centrifugation. To this end, the isolated, labelled lipoprotein fraction is adjusted to a density of 1.26 using NaBr. Each 4 ml of this solution are covered with a layer of 4 ml of a solution of density 1.21 and 4.5 ml of a solution of density 1.063 (density solutions of PDB buffer and NaBr) in centrifuge tubes (SW 40 rotor) and then centrifuged in the SW 40 rotor for 24 h at 38,000 rpm and 20° C. The intermediate layer containing the labelled HDL lying between the densities 1.063 and 1.21 is dialyzed against 3×100 volumes of PDB buffer at 4° C.
The retentate contains radiolabelled ^3 H-CE-HDL which, adjusted to about 5×10^6 cpm per ml, is used for the test.
For testing the CETP activity, the transfer of ^3 H-cholesterol ester from human HD lipoproteins to biotinylated LD lipoproteins is measured.
The reaction is ended by addition of streptavidin-SPA® beads (Amersham) and the transferred radioactivity is determined directly in a liquid scintillation counter.
In the test mixture, 10 μl of HDL-^3 H-cholesterol ester (~50,000 cpm) are incubated at 37° C. for 18 h with 10 μl of biotin-LDL (Amersham) in 50 mM Hepes/0.15 m NaCl/0.% bovine serum albumin/0.05% NaN3 pH 7.4 with 10 μl of CETP (1 mg/ml) and 3 μl of solution of the substance to be tested (dissolved in 10% DMSO/1% RSA). 200 μl of the SPA-streptavidin bead solution (Amersham TRKQ 7005) are then added, the mixture is incubated further for 1 h with shaking and then measured in the scintillation counter. As controls, corresponding incubations with 10 μl of buffer, 10 μl of CETP at 4° C. and 10 μl of CETP at 37° C. are used. The activity transferred into the control mixtures with CETP at 37° C. is rated as 100% transfer. The substance concentration at which this transfer is reduced by half is indicated as the IC50 value.
In the following table, the IC50 values (mol/l) are indicated for CETP inhibitors: […]

[2] = Oral activity in hamsters: HDL cholesterol and triglycerides; assay type: in vivo, Syrian golden hamsters
Procedure: (§1) Syrian golden hamsters from in-house breeding are anaesthetized after fasting for 24 hours (0.80 mg/kg of atropine, 0.80 mg/kg of Ketavet® s.c. 30' later 50 mg/kg of Nembutal i.p.). The jugular vein is then exposed and cannulated. The test substance is dissolved in a suitable solvent (as a rule Adalat placebo solution: 60 g of glycerol, 100 ml of H2 O, PEG-400 to 1000 ml) and administered to the animals via a PE catheter inserted into the jugular vein. The control animals receive the same volume of solvent without test substance. The vein is then tied off and the wound is closed. After various times--up to 24 hours after administration of the test substance--blood (about 250 μl) is removed from the animals by puncture of the retro-orbital venous plexus. Clotting is concluded by incubation at 4° C. overnight, then centrifugation is carried out at 6000 g for 10 minutes. In the serum thus obtained, the content of cholesterol and triglycerides is determined with the aid of modified commercially available enzyme tests (cholesterol enzymatic 14366 Merck, triglycerides 14364 Merck). Serum is suitably diluted using physiological saline solution.
(§2) 100 μl of serum dilution are mixed with 100 μl of […] in 96-well plates and incubated at room temperature for 10 minutes. The optical density is then determined at a wavelength of 492 nm using an automatic plate-reading apparatus (SLT Spectra). The triglyceride/cholesterol concentration contained in the samples is determined with the aid of a standard curve measured in parallel.
The determination of the content of HDL cholesterol is carried out after precipitation of the ApoB-containing lipoproteins by means of a reagent mixture (Sigma 352-4 HDL cholesterol reagent) according to the manufacturer's instructions.
In experiments to determine the oral activity, test substance dissolved in DMSO and suspended in 0.5% Tylose is administered orally by means of stomach tube to Syrian golden hamsters from in-house breeding. The control animals receive identical volumes of solvent without test substance. […]

[3] = system: CETP; test: Determination of the CETP activity ex vivo after intravenous administration; assay type: in vivo, Syrian golden hamsters; conditions: 20 mg/kg intravenous
Procedure: as §1
Determination of the CETP activity
After intravenous administration of 20 mg/kg of the compound from Example 42, an about 50% reduction of the CETP activity measured ex vivo is found over a period of at least 2 hours. […]

[4] = HDL cholesterol after intravenous administration to hamsters; assay type: in vivo, Syrian golden hamsters; conditions: 20 mg/kg intravenous; 24 hours after substance administration
Procedure: as §1, with “Clotting is concluded by incubation at 4° C. overnight, then centrifugation is carried out at 6000 g for 10 minutes.” left out, “Serum is suitably diluted using physiological saline solution.” left out
as §2, with “parallel. […]” for “parallel.”

[5] = 2×45 mg/kg per os, 24 hours after the first administration

SMILES	IC50 [1]	other results
CC(C)c1nc(-c2ccc(F)cc2)c(CO)c(-c2cccc(Cl)c2)c1Cc1ccc(C(F)(F)F)cc1 [Example 63]	1000 nM	–
OCc1c(-c2ccc(F)cc2)nc(C2CCCCCC2)c(C(F)c2ccc(C(F)(F)F)cc2)c1-c1ccc(F)cc1 (stereo not drawn) [Example 53]	170 nM	–
OCc1c(-c2ccc(F)cc2)nc(C2CCCC2)c(C(F)c2ccc(C(F)(F)F)cc2)c1-c1ccc(F)cc1 (single isomer, unassigned) [Example 44]	–	increase of the level of HDL cholesterol versus control group [2, 5]: 20%; lowering of the level of the triglycerides versus control group [2, 5]: 70%
OCc1c(-c2ccc(F)cc2)nc(C2CCCCC2)c(C(F)c2ccc(C(F)(F)F)cc2)c1-c1ccc(F)cc1 (stereo not drawn) [Example 51]	400 nM	–
CC(C)c1nc(-c2ccc(F)cc2)c(C(C)O)c(-c2ccc(F)cc2)c1C(F)c1ccc(C(F)(F)F)cc1 (stereo not drawn) [Example 3, 4,6-Bis-(p-fluorophenyl)-2-isopropyl-3-[(p-trifluoromethylphenyl)-(fluoro)methyl]5-(1-hydroxyethyl)pyridine]	800 nM	–
CC(C)c1nc(-c2ccc(F)cc2)c(CO)c(-c2ccc(F)cc2)c1C=Cc1cccc(C(F)(F)F)c1 [Example 83, 2,4-di-(4-Fluorophenyl)-6-isopropyl-5-[2-(3-trifluoromethylphenyl)vinyl]-3-hydroxymethyl-pyridine]	5000 nM	–
OCc1c(-c2ccc(Cl)cc2)nc(C2CCCC2)c(C(F)c2ccc(C(F)(F)F)cc2)c1-c1ccc(F)cc1 (stereo not drawn) [Example 37]	300 nM	–
CC(C)c1nc(-c2ccc(F)cc2)c(CO)c(-c2ccc(F)cc2)c1C(F)c1ccc(C(F)(F)F)cc1 (stereo not drawn) [Example 31, 2-,4-di-(4-Fluorophenyl)-6-isopropyl-5-[4-(trifluoromethylphenyl)-fluoromethyl]-3-hydroxymethyl-pyridine]	500 nM	–
CC(O)c1c(-c2ccc(F)cc2)nc(C2CCCC2)c(C(=O)c2ccc(C(F)(F)F)cc2)c1-c1ccc(F)cc1 (stereo not drawn) [Example 26]	900 nM	–
O=C(c1ccc(C(F)(F)F)cc1)c1c(C2CCCC2)nc(-c2cccc(C(F)(F)F)c2)c(CO)c1-c1ccc(F)cc1 [Example 14]	70 nM	–
OCc1c(-c2ccc(F)cc2)nc(C2CCCC2)c(C(F)c2ccc3ccccc3c2)c1-c1ccc(F)cc1 (stereo not drawn) [Example 68]	80 nM	–
OCc1c(-c2ccc(F)cc2)nc(C2CCCC2)c(C(F)c2ccc(C(F)(F)F)cc2)c1-c1ccc(F)cc1 (stereo not drawn) [Example 42]	90 to 170 nM	period over which the about 50% reduction of CETP activity is found ([3]; ex vivo): at least 2 hours; reduction of the CETP activity measured ex vivo ([3]; over a period of at least 2 hours): about 50%; increase of HDL cholesterol levels ([2]; 100 mg/kg per os, 24 hours after administration): 30%; increase of HDL cholesterol values versus control group [4]: about 30%
OCc1c(-c2ccc(F)cc2)nc(C2CCCC2)c(C(F)c2ccc(OC(F)(F)F)cc2)c1-c1ccc(F)cc1 (stereo not drawn) [Example 45]	300 nM	–
